Earlier results as cited in patent US20200306268A1, “VITAMIN COMPOSITION” (Tempus Bio Technologies LLC, priority 2019, published 2020).

In the case of `C=C1CC[C@H](O)C/C1=C/C=C1\CCC[C@]2(C)[C@@H]([C@H](C)CCCC(C)C)CC[C@@H]12` [vitamin D3, (3β,5Z,7E)-9,10-secocholesta-5,7,10(19)-trien-3-ol], the “solubility in MCT oil” value (MCT oil) is listed as “very soluble” and the solubility in water (water) is listed as “not soluble”.
